From patent US20250268873A1, “COMBINATION OF DUAL ATM AND DNA-PK INHIBITORS AND IMMUNOTHERAPEUTIC AGENTS FOR USE IN CANCER THERAPY” (XRAD THERAPEUTICS, INC., priority 2021, published 2025)

Test system: TBK1
Experiment: Immunoblot of TBK1 phosphorylation in HCT116 cells
Assay type: cell-based, human
Details: HCT116 p53 wild-type and p53−/− cells; 1 μM single agents, combination 0.5 or 1 micromolar each
Text: Antibodies recognizing phosphorylated/activated ATM (S1981, #ab81292) and DNA-PKcs (S2056, #ab18192) were purchased from Abcam Biotechnology (Cambridge, MA). Antibodies to ATM (#A1106) and DNA-PKcs (#ab1832) were from Sigma and Abcam, respectively. Phospho-KAP1 (S824, #A300-767A) and KAP1 (A700-014) antibodies were from Bethyl Labs (Montgomery, TX). Phospho-TBK1 (#5483), cGAS (#15102), and pSTING (S366, #19781S) antibodies were from Cell Signaling Technology (CST) (Danvers, MA). STING (PA5-23381) antibodies were from ThermoFisher Scientific (Waltham, MA), and actin (#A5316) antibodies were from Sigma. All antibodies were diluted 1:1000 with the exception of actin which was diluted 1:3000 in 1×TBST (1×TBS-10×TBS, (Corning, 46-012-CM), 0.05% Tween-20 (P7949) Sigma and 1% BSA. Secondary antibodies used were (a) Li-Cor method-Goat anti-Rabbit (926-3221) and Goat anti-Mouse (926-68020) Li-Cor (b) ECL method: Anti-rabbit IgG, HRP-linked (#7074S), CST.
Cells were pretreated with Compound 569 at 20, 100, 500, or 1000 nM or DMSO for 30 min and then irradiated with 0 or 10 Gy (XRAD 160, Precision X Ray) as shown in FIG. 1. In FIG. 3, cells were pretreated with Compound 569 at 1 μM, ATMi (AZD0156) at 1 μM, DNA-PKi (peposertib) at 1 μM as single agents or DMSO or with ATMi and DNA-PKi in combination at 0.5 micromolar each or at 1 micromolar each for 30 min and then irradiated with 0 or 10 Gy (XRAD 160, Precision X Ray) as shown in FIG. 1. One hour after IR, cells were lysed in RIPA buffer ([…], pH 8.0, 150 mM NaCl, 0.1% SDS, 0.5% sodium deoxycholate, 1% IGEPAL® CA-630 (Sigma, 18896) for 20 min at 4° C. in the presence of protease and phosphatase inhibitor cocktails (Roche, #04693159001 & #04906837001). Cell lysates were centrifuged at 13,200 g for 10 min at 4° C. and supernatants were analyzed for protein content using BCA assay (Pierce™ BCA Protein Assay Kit, cat #23227, ThermoFisher Waltham, MA 02451) and equal amounts of protein/lane were used for subsequent immunoblot analyses. Proteins were denatured by adding NuPAGE LSD Sample Buffer [4×] […]

## CN(C)CCCOc1ccc(-c2ccc3ncc4c(c3c2)n(C2CCOCC2)c(=O)n4C)cn1 [AZD0156]
  phosphorylation of TBK1: induction of phosphorylation of TBK1

## COc1ccc([C@@H](O)c2cc(-c3ncnc4cc(N5CCOCC5)ccc34)c(F)cc2Cl)nn1 [peposertib]
  phosphorylation of TBK1: induction of phosphorylation of TBK1
